From paper PMC9977398, “Next-generation membrane-active glycopeptide antibiotics that also inhibit bacterial cell division” (Chemical Science, 2023) come the findings set out here.

Data set [1] deals with PA R590 (MDR strain of P. aeruginosa). Description: MIC determination, micro-dilution broth. The class given is cell-based. As for the experimental part: (§1) The increase in the carbon content of substituted moieties from six (1) to seven (2 and 3) to ten (5) to twelve (4), increased activity. […]
(§2) Test compound was assayed in a micro -dilution broth format as per the CLSI guideline. The bacterial freeze dried stock samples were stored at -80 °C. About 5 μL of these stocks were added to 3 mL of the respective broth and the culture was grown for 6 h at 37°C with prior to the experiments. This 6 h grown culture was diluted to give effective cell concentration of 10 5 CFU/mL which was then used for determining MIC. Compounds were serially diluted 2 -fold, in sterile millipore water and 50 μL of these serial dilutions were added to the wells of 96 well plate followed by the addition of about 150 μL of bacterial solution. The plates were then incubated for 18-24 h at 37 °C. The O.D. value at 600 nm was recorded using TECAN (Infinite series, M200 pro) Plate Reade r. Each concentration had triplicate values and the whole experiment was done at least twice and the MIC value was determined by taking the average of triplicate O. D. values for each concentration and plotting it against concentration. The data was then subjected to sigmoidal fitting. From the curve the MIC value was determined, as the point where the O. D. was similar to that of control having no bacteria.

Data set [2] relates to AB 1425 (A. baumannii MTCC 1425). Description: MIC determination, micro-dilution broth. The class given is cell-based. How it is done:
as §1, §2

Data set [3] deals with MRSA, methicillin-resistant S. aureus (ATCC 33591). Description: MIC determination, micro-dilution broth. Particulars: Staphylococcus aureus, read-out: Minimum inhibitory concentration, MRSA. Format: cell-based. How it is done: as §1, §2
Data set [4] deals with exponential growth phase MRSA. Briefly: Time-kill kinetics, exponentially growing MRSA. Format: cell-based, S. aureus. Particulars: for time to complete eradication: exponentially growing MRSA; for minimum bactericidal concentration (MBC): log-phase MRSA. As for the experimental part:
To examine the antibacterial properties of the two leads, VanQbiph (4) and VanQAmC10 (8), the kinetics of bactericidal activity against exponentially growing, log-phase cells of MRSA was evaluated (Fig. 1B). The minimum bactericidal concentration (MBC) of VanQbiph (4) and VanQAmC10 (8) was at 2×MIC. […]
Time-kill kinetics assay 4
(§3) The bactericidal activity of the compounds was evaluated with the time kill kinetics assay.
MRSA ATCC 33591 cells were cultured in nutrient media at 37°C for 6 h. VanQAmC 10, VanQbiph, and vancomycin was added to the bacterial solution (~1.8×10^5 CFU/mL) with the working concentration of 25 μM. This was incubated at 37°C. At different time intervals (0, 1, 2, 3, 6 and 24 h) 20 μL of aliquots from that solution were serially diluted 10 -fold in 0.9 % saline. Then from the dilutions, 20 μL was plated on yeast -dextrose agar plates and incubated at 37°C for 24 h. The bacterial colonies were counted and results are represented in logarithmic scale, i.e. log10 (CFU/mL). […]

The next data set concerns MRSA. Description: Membrane permeabilization assay, propidium iodide uptake. Format: cell-based, S. aureus. How it is done: The kinetics of permeabilization of membranes of MRSA and B. subtilis by the compounds was measured by the uptake of propidium iodide (PI). […] When the membrane integrity is compromised, it enters the cell and fluoresces upon binding to the DNA. Both VanQbiph (4) and VanQAmC10 (8) permeabilized the membrane in a concentration-dependent manner (Fig. S2 ^†). […] They caused gradual permeabilization against the stationary phase cells of MRSA as well (Fig. 2F). The extent of permeabilization was higher for VanQAmC10 (8) than VanQbiph (4) against both the log-phase and stationary-phase bacteria similar to that observed during depolarisation.
50 μL of serially diluted compound was added into 96 well microtiter plates. Freshly drawn, heparanized human blood was centrifuged down to obtain the erythrocytes and re-suspended to 5 vol % in PBS (pH 7.4). 150 μL of the erythrocyte suspension was added to the serially diluted compounds (from 500 µM to 2 µM). One set without compound and other with 50 μL of 1 vol % solution of Triton X-100 were kept as controls. […] 100 μL of the supernatant from each well were transferred into fresh microtiter plates, and A540 was measured.
% haemolysis = (A - A0)/(Atotal -A0) × 100, where A is the absorbance of the test well, A 0 the absorbance of the negative controls (without compound), and A total the absorbance of 100 % hemolysis wells (with Triton X -100), all at 540 nm. […]
2 h post incubation with dye, the absorbance was measured at 570 nm using 600 nm as […]
as §3
MRSA ATCC 33591 cells were cultured in nutrient media at 37°C for 6 h. […] The bacterial colonies were counted and results are represented in logarithmic scale, i.e. log10 (CFU/mL). […]
were added to it the wells containing bacterial suspension. Fluorescence has monitored at excitation wavelength of 535 nm (slit width: 10 nm) and emission wavelength of 617 nm (slit width: 5 nm). As a measure of inner membrane permeabilization the uptake of PI was monitor by the increase in fluorescence for 30-50 min. […]

The mark [5] stands for this setting: Pseudomonas aeruginosa, read-out: Minimum inhibitory concentration, PA R590.
Setting [6] is: Acinetobacter baumannii, MTCC1425, read-out: Minimum inhibitory concentration, AB 1425.

Values after ≈ are worked out from the molar mass of the structure shown. Where two headings read alike, the source gives them in different places.

Consider `CNC(CC(C)C)C(=O)NC1C(=O)NC(CC(N)=O)C(=O)NC2C(=O)NC3C(=O)NC(C(=O)NC(C(=O)NCCC[N+](C)(C)Cc4ccc(-c5ccccc5)cc4)c4cc(O)cc(O)c4-c4cc3ccc4O)C(O)c3ccc(c(Cl)c3)Oc3cc2cc(c3OC2OC(CO)C(O)C(O)C2OC2CC(C)(N)C(O)C(C)O2)Oc2ccc(cc2Cl)C1O` (centres unmarked) [VanQbiph (4)], for which the MIC is above 30 µM in data set [1] (Pseudomonas aeruginosa; read-out: Minimum inhibitory concentration, PA R590); 15.7 µM in data set [2] (Acinetobacter baumannii, MTCC1425; read-out: Minimum inhibitory concentration, AB 1425); 0.5 µM in data set [3] (MRSA ATCC 33591). Besides, the “time to complete eradication” value in data set [4] (8×MIC) is 24 h. In data set [4], the “minimum bactericidal concentration (MBC)” value was determined as 2 ×MIC. Also, the “effect on membrane integrity (PI uptake)” value with MRSA is “slower permeabilization”.

Consider `CN[C@H](CC(C)C)C(=O)N[C@H]1C(=O)N[C@@H](CC(N)=O)C(=O)N[C@H]2C(=O)N[C@H]3C(=O)N[C@H](C(=O)N[C@H](C(=O)O)c4cc(O)cc(O)c4-c4cc3ccc4O)[C@H](O)c3ccc(c(Cl)c3)Oc3cc2cc(c3O[C@@H]2O[C@H](CO)[C@@H](O)[C@H](O)[C@H]2O[C@H]2C[C@](C)(N)[C@H](O)[C@H](C)O2)Oc2ccc(cc2Cl)[C@H]1O` [Vancomycin, reference compound], for which the MIC in data set [1] (setting [5]) is 100 µM (≈ 145 µg/mL); in data set [2] (setting [6]), 100 µM (≈ 145 µg/mL); in data set [3], 0.6 µM (≈ 0.87 µg/mL). Further, the “time to complete eradication” value in data set [4] (2×MIC) was found to be 24 h. For the same compound, in the data set with MRSA, the “effect on membrane integrity (PI uptake)” value was “does not affect the membrane integrity”.

Regarding `CCCCCCCCCCNC(=O)C[N+](C)(C)CCCNC(=O)C1NC(=O)C2NC(=O)C(NC(=O)C3NC(=O)C(CC(N)=O)NC(=O)C(NC(=O)C(CC(C)C)NC)C(O)c4ccc(c(Cl)c4)Oc4cc3cc(c4OC3OC(CO)C(O)C(O)C3OC3CC(C)(N)C(O)C(C)O3)Oc3ccc(cc3Cl)C2O)c2ccc(O)c(c2)-c2c(O)cc(O)cc21` (centres unmarked) [VanQAmC10 (8)], the MIC was 3.1 µM in data set [1] (setting [5]), 6.3 µM in data set [2] (setting [6]) and 0.4 µM in data set [3]. In addition, in data set [4] (8×MIC), the “time to complete eradication” value is on record as at most 6 h. Further, the “minimum bactericidal concentration (MBC)” value in data set [4] was determined as 2 ×MIC. Besides, the “time to membrane permeabilization” value with MRSA (exponentially growing MRSA, 10 μM, PI uptake) was at most 4 min.
